Measurements taken from DBAASP.
Converted amounts (≈) assume the structure as drawn. “And” between values parts separate entries of the source, which are not always exact repeats. Equal entries are not always repeated.

Legend:
Assay in all cases: ≥ marks a high value that may be exact or a test limit, other limits are often not marked, values filed in µg/mL are converted to µM
[1] = system: Acinetobacter baumannii ATCC 19606
Acinetobacter baumannii = system: Acinetobacter baumannii
[2] = system: Bacillus subtilis ATCC 6051
[3] = system: Candida albicans ATCC 90028
[4] = system: Cryptococcus neoformans ATCC 208821
[5] = system: Escherichia coli ATCC 25922
[6] = system: Klebsiella pneumoniae ATCC 13883
[7] = system: Klebsiella pneumoniae ATCC 700603
[8] = system: Klebsiella pneumoniae ATCC BAA-2146
Klebsiella pneumoniae = system: Klebsiella pneumoniae
[9] = system: Pseudomonas aeruginosa ATCC 27853
Pseudomonas aeruginosa = system: Pseudomonas aeruginosa
[10] = system: Staphylococcus aureus ATCC 43300
[11] = system: Acinetobacter baumannii KCTC 2508
[12] = system: Klebsiella pneumoniae KCTC 2208
[13] = system: Pseudomonas aeruginosa H1001
[14] = system: Escherichia coli ATCC 8739
[15] = system: Bacillus subtilis ATCC 23857
[16] = system: Bacillus subtilis CCT 2576
[17] = system: Candida albicans ATCC 14053
Candida albicans = system: Candida albicans
[18] = system: Candida glabrata ATCC 2001
Candida glabrata = system: Candida glabrata
Candida krusei ATCC 6258 = system: Candida krusei ATCC 6258
[19] = system: Candida tropicalis ATCC 750
[20] = system: Cronobacter sakazakii ATCC 29544
[21] = system: Escherichia coli ATCC 43827
Escherichia coli ML-35 = system: Escherichia coli ML-35
[22] = system: Pseudomonas aeruginosa ATCC 15422
[23] = system: Staphylococcus aureus ATCC 25923
[24] = system: Staphylococcus aureus ATCC 29213
[25] = system: Staphylococcus aureus ATCC 6538
[26] = system: Staphylococcus epidermidis ATCC 12228

Row | MIC [1] | MIC (Acinetobacter baumannii) | MIC [2] | MIC [3] | MIC [4] | MIC [5] | MIC [6] | MIC [7] | MIC [8] | MIC (Klebsiella pneumoniae) | MIC [9] | MIC (Pseudomonas aeruginosa) | MIC [10] | MIC [13] | Structure (SMILES) | further results
1 | 0.0574 µM (≈ 0.125 µg/mL) | 0.23 µM (≈ 0.499 µg/mL) | 0.115 µM (≈ 0.25 µg/mL) | 3.68 µM (≈ 7.99 µg/mL) | 0.23 µM (≈ 0.499 µg/mL) | 0.0276 µM (≈ 0.06 µg/mL) | 0.0574 µM (≈ 0.125 µg/mL) | 0.0574 µM (≈ 0.125 µg/mL) | 0.23 µM (≈ 0.499 µg/mL) | 3.68 µM (≈ 7.99 µg/mL) | 0.459 µM (≈ 0.998 µg/mL) | 0.919 µM (≈ 2 µg/mL) | 1.84 µM (≈ 3.99 µg/mL) | – | CC[C@H](C)[C@@H]1NC(=O)CNC(=O)[C@H](CCCN=C(N)N)NC(=O)[C@H](C)NC(=O)[C@@H]2CSSC[C@H](NC1=O)C(=O)N[C@@H](Cc1ccc(O)cc1)C(=O)N[C@@H](CCCN=C(N)N)C(=O)N[C@@H](CCCN=C(N)N)C(=O)N[C@H](C(=O)N[C@@H](CCCN=C(N)N)C(=O)O)CSSC[C@H](NC(=O)[C@H](Cc1c[nH]c3ccccc13)NC(=O)[C@@H](N)CCCCN)C(=O)N[C@@H](Cc1ccccc1)C(=O)N[C@@H](CCCN=C(N)N)C(=O)N[C@@H](C(C)C)C(=O)N2 [KWCFRVCARGICYRRCR] | –
2 | 0.112 µM (≈ 0.25 µg/mL) | 0.112 µM (≈ 0.25 µg/mL) | 0.0561 µM (≈ 0.125 µg/mL) | 0.898 µM (≈ 2 µg/mL) | 0.225 µM (≈ 0.499 µg/mL) | 0.0561 µM (≈ 0.125 µg/mL) | 0.112 µM (≈ 0.25 µg/mL) | 0.225 µM (≈ 0.499 µg/mL) | 0.112 µM (≈ 0.25 µg/mL) | 3.59 µM (≈ 7.99 µg/mL) | 0.112 µM (≈ 0.25 µg/mL) | 0.449 µM (≈ 0.998 µg/mL) | 0.898 µM (≈ 2 µg/mL) | – | CC(C)[C@@H]1NC(=O)[C@H](CCCN=C(N)N)NC(=O)[C@H](Cc2ccccc2)NC(=O)[C@@H](NC(=O)[C@H](Cc2c[nH]c3ccccc23)NC(=O)[C@@H](N)CCCCN)CSSC[C@@H](C(=O)N[C@@H](CCCN=C(N)N)C(=O)O)NC(=O)[C@H](CCCN=C(N)N)NC(=O)[C@H](CCCN=C(N)N)NC(=O)[C@H](Cc2ccc(O)cc2)NC(=O)[C@@H]2CSSC[C@H](NC1=O)C(=O)N[C@@H](Cc1ccc(O)cc1)C(=O)N[C@@H](CCCN=C(N)N)C(=O)NCC(=O)N[C@@H](C)C(=O)N2 [KWCFRVCYRGACYRRCR] | –
3 | – | – | – | – | – | – | – | – | – | – | 2 µM (≈ 5.75 µg/mL) | – | – | – | CC[C@H](C)[C@H](N)C(=O)N[C@@H](C)C(=O)N[C@@H](CCCN=C(N)N)C(=O)N[C@@H](CCCN=C(N)N)C(=O)N[C@@H](C)C(=O)N[C@@H](CC(C)C)C(=O)N[C@@H](CCCCN)C(=O)N[C@@H](CCCCN)C(=O)N[C@@H](C)C(=O)N[C@@H](CCCCN)C(=O)N[C@@H](CCCN=C(N)N)C(=O)N[C@@H](C)C(=O)N[C@@H](C)C(=O)N[C@@H](Cc1cnc[nH]1)C(=O)N[C@@H](CCCCN)C(=O)N[C@H](C(=O)N1CCC[C@H]1C(=O)N[C@@H](C)C(=O)N[C@@H](CS)C(=O)N[C@@H](CCCCN)C(=O)N[C@@H](CCCCN)C(=O)N[C@@H](Cc1ccccc1)C(=O)NCC(=O)N[C@@H](CCCN=C(N)N)C(=O)N[C@@H](CCCN=C(N)N)C(N)=O)[C@@H](C)CC [IARRALKKAKRAAHKIPACKKFGRR] | MIC [11]: 16 µM (≈ 46 µg/mL); MIC [12]: 8 µM (≈ 23 µg/mL)
4 | – | – | – | – | – | – | – | – | – | – | – | – | – | 0.105 µM (≈ 0.26 µg/mL) | CC(C)C[C@H](NC(=O)[C@H](Cc1ccc(O)cc1)NC(=O)[C@@H]1CCCN1C(=O)[C@@H]1CCCN1C(=O)[C@H](CCCCN)NC(=O)[C@H](CC(=O)O)NC(=O)[C@@H](N)C(C)C)C(=O)N1CCC[C@H]1C(=O)N[C@@H](CCCN=C(N)N)C(=O)N1CCC[C@H]1C(=O)N[C@@H](CCCN=C(N)N)C(=O)N1CCC[C@H]1C(=O)N1CCC[C@H]1C(=O)N[C@@H](CCCN=C(N)N)C(=O)N[C@@H](CCCN=C(N)N)C(=O)N[C@@H](Cc1ccccc1)C(=O)N[C@@H](Cc1ccc(O)cc1)C(=O)N[C@@H](CC(N)=O)C(=O)N[C@@H](CCCN=C(N)N)C(=O)NCC(=O)O [VDKPPYLPRPRPPRRFYNRG] | –
5 | – | – | – | – | – | – | – | – | – | – | – | – | – | 5.86 µM (≈ 12.5 µg/mL) | CC[C@H](C)[C@H](NC(=O)[C@H](C)NC(=O)[C@H](CC(N)=O)NC(=O)[C@H](CCSC)NC(=O)[C@@H]1CCCN1)C(=O)N[C@@H](CCCCN)C(=O)N[C@@H](CC(C)C)C(=O)N[C@@H](CC(C)C)C(=O)N[C@@H](CS)C(=O)N[C@@H](CCCN=C(N)N)C(=O)N[C@H](C(=O)N[C@@H](Cc1cnc[nH]1)C(=O)N[C@@H](CCCCN)C(=O)N[C@@H](CCCCN)C(=O)N[C@H](C(=O)N[C@@H](C)C(=O)N[C@H](C(=O)N[C@@H](CO)C(=O)N[C@H](C(=O)O)C(C)C)[C@@H](C)CC)[C@@H](C)CC)C(C)C [PMNAIKLLCRVHKKIAISV] | MIC [14]: ≥ 60 µM
6 | – | – | – | – | – | 32 µM (≈ 39.7 µg/mL) | – | 128 µM (≈ 159 µg/mL) | – | – | – | – | – | – | CC[C@H](C)[C@H](N)C(=O)N[C@@H](CC(C)C)C(=O)NCC(=O)N[C@H](C(=O)N[C@H](C(=O)N[C@@H](CC(C)C)C(=O)NCC(=O)N[C@@H](CC(C)C)C(=O)N[C@@H](CC(C)C)C(=O)N[C@@H](CCCCN)C(=O)N[C@@H](CO)C(=O)N[C@@H](CC(C)C)C(N)=O)[C@@H](C)CC)[C@@H](C)O [ILGTILGLLKSL] | MIC [15]: 4 µM (≈ 4.96 µg/mL); MIC [16]: 12.1 µM (≈ 15 µg/mL); MIC [17]: 16 µM (≈ 19.8 µg/mL); MIC (Candida albicans): 22.6 µM (≈ 28 µg/mL); MIC [18]: 16 µM (≈ 19.8 µg/mL); MIC (Candida glabrata): 16 µM (≈ 19.8 µg/mL); MIC (Candida krusei ATCC 6258): ≥ 32 µM; MIC [19]: 4 µM (≈ 4.96 µg/mL); MIC [20]: ≥ 64 µM; MIC [21]: ≥ 32 µM; MIC (Escherichia coli ML-35): ≥ 64 µM; MIC [22]: ≥ 202 µM; MIC [23]: 8 µM (≈ 9.92 µg/mL); MIC [24]: 4 µM (≈ 4.96 µg/mL); MIC [25]: 12.1 µM (≈ 15 µg/mL); MIC [26]: 8 µM and > 4 µM
